Series [1] in a line: LogP measurement by HPLC on reversed phase columns (EEC directive 79/831 Annex V.A8). Particulars: reversed phase HPLC columns. The class given is physicochemical. How it is done:
Measurement of LogP values was performed according to EEC directive 79/831 Annex V.A8 by HPLC (High Performance Liquid Chromatography) on reversed phase columns with the following methods: • ^[a] LogP value is determined by measurement of LC-UV, in an acidic range, with 0.1% formic acid in water and acetonitrile as eluent (linear gradient from 10% acetonitrile to 95% acetonitrile). • ^[b] LogP value is determined by measurement of LC-UV, in a neutral range, with 0.001 molar ammonium acetate solution in water and acetonitrile as eluent (linear gradient from 10% acetonitrile to 95% acetonitrile). • ^[c] LogP value is determined by measurement of LC-UV, in an acidic range, with 0.1% phosphoric acid and acetonitrile as eluent (linear gradient from 10% acetonitrile to 95% acetonitrile).
If more than one LogP value is available within the same method, all the values are given and separated by "+". […]

A further series deals with Phakospora pachyrhizi. The experiment in a line: in vivo preventive test on Phakospora pachyrhizi (soybean rust). Particulars: Glycine max, 264 h; 500 ppm of active ingredient; preventive spray on young soybean plants, inoculation after 24 hours, evaluated 11 days after inoculation; 0% = control plants, 100% = no disease; read-out: efficacy. How it is done: Example A: in vivo preventive test on Phakospora pachyrhizi (soybean rust) [table] The active ingredients were made soluble and homogenized in a mixture of Dimethyl sulfoxide/Acetone/ /Tween® 80 and then diluted in water to the desired concentration. The young plants of soybean were treated by spraying the active ingredient prepared as described above. Control plants were treated only with an aqueous solution of Acetone/Dimethyl sulfoxide/ Tween® 80. After 24 hours, the plants were contaminated by spraying the leaves with an aqueous suspension of Phakospora pachyrhizi spores. The contaminated soybean plants were incubated for 24 hours at 24°C and at 100% relative humidity and then for 10 days at 24°C and at 70-80% relative humidity. The test was evaluated 11 days after the inoculation. 0% means an efficacy which corresponds to that of the control plants while an efficacy of 100% means that no disease was observed.

The mark [2] stands for this setting: method [a]: LC-UV, acidic range, 0.1% formic acid in water and acetonitrile as eluent (linear gradient 10% to 95% acetonitrile).

Drawing on patent EP3915971A1, “PHENYL-S(O)N-PHENYLAMIDINES AND THE USE THEREOF AS FUNGICIDES” (Bayer Aktiengesellschaft, priority 2020, dated 2021), this text covers chromatographic logP and pest or weed control for 14 compounds.

In the case of `CCN(C)C=Nc1cc(C)c(Sc2ccccc2Cl)cc1C` [Example I-005, N'-[4-[(2-chlorophenyl)thio]-2,5-dimethylphenyl]-N-ethyl-N-methylmethanimidamide], the chromatographic logP in series [1] (setting [2]) worked out at 2.16. The pest or weed control at 500 ppm with Phakospora pachyrhizi was not below 70%.
For the compound `CCN(C)C=Nc1cc(C)c(Sc2ccccc2C)cc1Cl` [Example I-006, N'-[2-chloro-5-methyl-4-[(2-methylphenyl)thio]phenyl]-N-ethyl-N-methylmethanimidamide], the chromatographic logP in series [1] (setting [2]) was found to be 1.77. Also, the pest or weed control at 500 ppm with Phakospora pachyrhizi was not below 70%.
Compound `CCN(C)C=Nc1cc(C)c(Sc2ccccc2Cl)cc1Cl` [Example I-007, N'-[2-chloro-4-[(2-chlorophenyl)thio]-5-methylphenyl]-N-ethyl-N-methylmethanimidamide] came in with a chromatographic logP in series [1] (setting [2]) of 1.83. Moreover, the pest or weed control at 500 ppm in the series on Phakospora pachyrhizi was not below 70%.
For `CCN(C)C=Nc1cc(C)c(Sc2ccccc2F)cc1Cl` [Example I-008, N'-[2-chloro-4-[(2-fluorophenyl)thio]-5-methylphenyl]-N-ethyl-N-methylmethanimidamide], in that order: 1.6 and not below 70%.
In series [1] (setting [2]), `CCN(C)C=Nc1cc(C)c(S(=O)(=O)c2ccccc2Cl)cc1C` [Example I-020, N'-[4-(2-chlorophenyl)sulfonyl-2,5-dimethylphenyl]-N-ethyl-N-methylmethanimidamide] showed a chromatographic logP of 1.18. Also, in the series on Phakospora pachyrhizi, the pest or weed control at 500 ppm was not below 70%.
Consider `CCN(C)C=Nc1cc(C)c([S+]([O-])c2ccccc2F)cc1C(C)C` (centres unmarked) [Example I-086, N-ethyl-N'-[4-(2-fluorophenyl)sulfinyl-2-isopropyl-5-methylphenyl]-N-methylmethanimidamide], for which the chromatographic logP in series [1] (setting [2]) was 1.15.
Compound `CCN(C)C=Nc1cc(C)c([S+]([O-])c2ccccc2C)cc1C(F)(F)F` (centres unmarked) [Example I-088, N-ethyl-N-methyl-N'-[5-methyl-4-(2-methylphenyl)sulfinyl-2-(trifluoromethyl)phenyl]methanimidamide] returned a chromatographic logP in series [1] (setting [2]) of 2.14.
In series [1] (setting [2]), `CCN(C)C=Nc1cc(C)c([S+]([O-])c2ccccc2F)cc1C1CC1` (centres unmarked) [Example I-089, N'-[2-cyclopropyl-4-(2-fluorophenyl)sulfinyl-5-methylphenyl]-N-ethyl-N-methylmethanimidamide] yielded a chromatographic logP of 1.04.
In series [1] (setting [2]), `CCN(C)C=Nc1cc(C)c(S(=O)(=O)c2ccccc2C)cc1C(F)(F)F` [Example I-092, N-ethyl-N-methyl-N'-[5-methyl-4-(2-methylphenyl)sulfonyl-2-(trifluoromethyl)phenyl]methanimidamide] registered a chromatographic logP of 3.76.
The same measure, in the same setting: the value for `CCN(C)C=Nc1cc(C)c(S(=O)(=O)c2ccccc2F)cc1C(C)C` [Example I-093, N-ethyl-N'-[4-(2-fluorophenyl)sulfonyl-2-isopropyl-5-methylphenyl]-N-methylmethanimidamide] was 1.45; that for `CCN(C)C=Nc1cc(C)c(S(=O)(=O)c2ccccc2C)cc1C(C)C` [Example I-094, N-ethyl-N'-[2-isopropyl-5-methyl-4-(2-methylphenyl)sulfonylphenyl]-N-methylmethanimidamide] was 1.58.
As for `CCN(C)C=Nc1cc(C)c(S(=O)(=O)c2ccccc2)cc1C1CC1` [Example I-095, N'-[4-(benzenesulfonyl)-2-cyclopropyl-5-methylphenyl]-N-ethyl-N-methylmethanimidamide], in series [1] (setting [2]), the chromatographic logP is 1.24.
`CCN(C)C=Nc1cc(C)c(S(=O)(=O)c2ccccc2F)cc1C1CC1` [Example I-096, N'-[2-cyclopropyl-4-(2-fluorophenyl)sulfonyl-5-methylphenyl]-N-ethyl-N-methylmethanimidamide] registered a chromatographic logP in series [1] (setting [2]) of 1.27.
With `CCN(C)C=Nc1cc(C)c(Sc2ccccc2C#N)cc1C(F)(F)F` [Example I-104, N'-[4-[(2-cyanophenyl)thio]-5-methyl-2-(trifluoromethyl)phenyl]-N-ethyl-N-methylmethanimidamide], the chromatographic logP in series [1] (setting [2]) amounted to 2.44; in series [1] (method [b]: LC-UV, neutral range, 0.001 molar ammonium acetate solution in water and acetonitrile as eluent (linear gradient 10% to 95% acetonitrile)), 4.64.
